Test results published in patent publication US20230357179A1, “RAF KINASE INHIBITORS AND METHODS OF USE THEREOF” (Deciphera Pharmaceuticals, LLC, priority 2021, published 2023).

System: WM3629 cells
Assay: WM3629 cell proliferation assay (1), resazurin, 96-well
Format: cell-based
Details: inhibition of cell proliferation
Method: WM3629 Cell Proliferation Assay (1)
WM3629 cells (#WM3629-01-0001) are obtained from Rockland Immunochemicals Inc (Gilbertsville, PA). Briefly, cells were grown in MCDB 153 medium (Sigma, #M7403, St. Louis, MO) supplemented with 20% Leibovitz's L-15 (ThermoFisher #11415-064, Waltham, MA), 2% heat inactivated fetal bovine serum (ThermoFisher, #A3840001, Waltham, MA), 5 μg/mL Insulin (Bovine Pancreas) (Sigma, #I0516, St. Louis, MO), 1.68 mM Calcium Chloride (Sigma, #C-34006, St. Louis, MO) and 1% Penicillin/Streptomycin/L-Glutamine (ThermoFisher #10378016, Waltham, MA) at 37° C., 5% CO2, and 95% humidity. Cells are expanded until reaching 70-95% confluency at which point they are subcultured or harvested for assay use. A serial dilution of test compound is dispensed into a 96-well black clear bottom plate in triplicate. Four thousand five hundred cells are added per well in 200 μL complete growth medium in the 96-well plate. Plates are incubated for 67-72 hours at 37° C., 5% CO2, and 95% humidity. At the end of the incubation, 40 μL of a 440 μM solution of resazurin (Sigma, #199303, St. Louis, MO) in PBS is added to each well of the plate and plates are incubated for an additional 6-7 hours at 37° C., 5% CO2, and 95% humidity. Plates are read on a Synergy2 or equivalent reader (Biotek, Winooski VT) using an excitation of 540 nm and an emission of 600 nm. Data is analyzed using Prism software (GraphPad, San Diego, CA) to calculate IC50 values.

Row | Compound | IC50
1 | Cc1ncc(NC(=O)NCCC2(C)CC2)cc1-c1ccnc(-c2ccnc(NC(=O)C3CC3)c2)n1 [Example 107] | ≤ 0.1 µM
2 | COC(=O)Nc1cc(-c2cc(-c3cc(NC(=O)NCCC(C)C)c(F)cc3C)cc(OCCO)n2)ccn1 [Example 115] | ≤ 0.1 µM
3 | CNC(=O)c1cc(-c2cnnc(-c3cc(NC(=O)NCCC(C)(C)C)c(F)cc3C)c2)ccn1 [Example 119] | 0.1 to 0.5 µM
4 | COC(=O)Nc1cc(-c2cc(-c3cc(NC(=O)NC4CC(C)(C)C4)cnc3C)cc(OCCO)n2)ccn1 [Example 156] | ≤ 0.1 µM

System: Miapaca-2 cells
Assay: MiaPaca-2 combination cell proliferation assay (1) with cobimetinib, 96-well
Format: cell-based
Details: inhibition of cell proliferation, read-out: MiaPaca-2 Combo (1) IC50
Method: MiaPaca-2 Combination Cell proliferation Assay (1)
Miapaca-2 cells (catalog #CRL-1420) are obtained from the American Type Culture Collect (ATCC, Manassas, VA). Briefly, cells were grown in DMEM supplemented with 10% characterized fetal bovine serum (Invitrogen, Carlsbad, CA), 2.5% New Zealand sourced horse serum and 1% Penicillin/Streptomycin/L-Glutamine at 37° C., 5% CO2, and 95% humidity. Cells are expanded until reaching 70-95% confluency at which point they are subcultured or harvested for assay use. A serial dilution of test compound was dispensed into multiple 96-well black clear bottom plates in triplicate. A serial dilution of complete growth medium containing cobimetinib was prepared at twice the final concentration and 100 μL was dispensed across the test compound titration in triplicate. Three thousand cells are added per well in 100 μL complete growth medium in each 96-well plate. Plates are incubated for 67-72 hours at 37° C., 5% CO2, and 95% humidity. At the end of the incubation, 40 μL of a 440 μM solution of resazurin (Sigma, St. Louis, MO) in PBS is added to each well of the plate and plates are incubated for an additional 5-7 hours at 37° C., 5% CO2, and 95% humidity. Plates are read on a Synergy2 or equivalent reader (Biotek, Winooski VT) using an excitation of 540 nm and an emission of 600 nm. Drug synergy was assessed via BLISS analysis in the Combenefit software (Cancer Research UK Cambridge Institute, Cambridge, UK). Data is analyzed using Prism software (GraphPad, San Diego, CA) to calculate IC50 values. Shifts in test compound IC50 values are reported from top-constrained combination therapy curves.

Row | Compound | IC50
5 | Cc1cc(F)c(NC(=O)NCCC(C)(C)C)cc1-c1cc(OCCO)nc(C2=CCOCC2)c1 [Example 7] | ≤ 0.1 µM
6 | Cc1ccc(NC(=O)Nc2cccc(C(F)(F)F)c2)cc1-c1cc(OCCO)nc(N2CCOCC2)c1 [Example 3, 1-(3-(2-(2-hydroxyethoxy)-6-morpholinopyridin-4-yl)-4-methylphenyl)-3-(3-(trifluoromethyl)phenyl)urea] | ≤ 0.1 µM
7 | Cc1ncc(NC(=O)NCCC2(C)CC2)cc1-c1cc(OCCO)nc(-c2ccnc(NC(=O)C3CC3)c2)c1 [Example 113] | ≤ 0.1 µM
